Key:
normal bone marrow cells = assay: Proliferation of normal bone marrow cells, crystal violet technique; format: cell-based; settings: normal mouse bone marrow cells; 5 µg/mL of citarabine; 5 days
Protocol: To determine the effect of the extract of Sechium edule hybrid named MH-387-07-GISeM” on tumor cells, HeLa cell lines, which are derived from adenocarcinoma of […] cervical epithelial tissue; cell line L929 derived from male mouse's fibrosarcoma of areolar and adipose subcutaneous connective […] tissue, WEHI-3 y K562 are lines derived from leukemia (liquid tumors) which are maintained in IMDM culture medium (Iscove's Modified Dulbecco's Medium). Tumor cells were cultured for 72 hours in 200 μL of culture medium and serum containing 0.0, 0.15, 0.3, 0.6, 1.2, 2.5 and 5 μg/mL of extract, and were evaluated by the crystal violet technique (FIG. 1). Cells were maintained in culture for 5 days after being stimulated with diverse doses of extract or Ara-C as a control (5 μM), and were evaluated by the crystal violet technique, FIG. 1, where a dose-response curve of the effect of H-387-07-GISeM extract on cell proliferation of lines EHI-3, HeLa, L929, and bone marrow cells was plotted. Values are the average of three tests with tree replicates. Lines above the bars indicate±standard deviation. * Significant difference (p<0.05) compared to control. […] On the other hand, normal bone marrow cells of mouse treated with […] achieve a proliferation of 60% compared to the control, but with 5 µg/mL of citarabine (Ara-c) it only reaches a 35%.

WEHI-3 [1] = assay: Apoptotic bodies by morphology (Giemsa), WEHI-3; format: cell-based, mouse; settings: 48 hrs, Ara-C 5 μg/mL, mean ± standard deviation
Protocol: (§1) Once elapsed that time, cells were collected and placed on a slide; then were fixed with 1 mL of methanol and stained for 20 minutes with 10% Giemsa stain. Cells were observed under a microscope (Cari Zeiss, Primo Star, Germany) equipped with 100× objective lens. Morphological changes like decreased cell volume, chromatin condensation, loss of cell membrane regularity, were cytomorphological parameters evaluated in the formation of apoptotic bodies. 200 cells of each experiment were counted to obtain the percentage of normal and apoptotic cells.

HeLa = assay: Apoptotic bodies by morphology (Giemsa), HeLa; format: cell-based, human; settings: 48 hrs, Ara-C 5 μg/mL, mean ± standard deviation
Protocol: as §1

L929 = assay: Apoptotic bodies by morphology (Giemsa), L929; format: cell-based, mouse; settings: 48 hrs, Ara-C 5 μg/mL, mean ± standard deviation
Protocol: as §1

K-562 = assay: Cell viability by trypan blue exclusion, K-562; format: cell-based; settings: K562
Protocol: On the other hand, the cell viability was evaluated in order to determine that the extract only acts against tumor cells, for which purpose tumor cells were cultured for 72 hours under the above conditions in quantities of 200 μL of medium per well in 96-well, flat bottom, ultra-low adherence plates (Costar, Cambridge, Mass., USA) with various doses of extract.

WEHI-3 [2] = assay: Apoptosis induction through DNA fragmentation (agarose gel); settings: WEHI-3 grown 48 hours, extract at IC50, FIG. 3
Protocol: Apoptosis induction was evaluated through DNA fragmentation.

Compound: Nc1ccn([C@@H]2O[C@H](CO)[C@@H](O)[C@@H]2O)c(=O)n1 [Ara-C, citarabine]
- proliferation compared to the control (normal bone marrow cells): 35%
- % Apoptotic bodies (WEHI-3 [1]): 61.5 ± 8.2%
- % Apoptotic bodies (HeLa): 21 ± 0%
- % Apoptotic bodies (L929): 6 ± 1.4%
- effect on viability (K-562; Ara-c as worded in text): totally does so
- DNA fragmentation (WEHI-3 [2]): experiences DNA fragmentation

Compound: Cc1ccc(NC(=O)c2ccc(CN3CCN(C)CC3)cc2)cc1Nc1nccc(-c2cccnc2)n1 [imatinib]
- viability at 1 µM (K-562; Homo sapiens, K-562, imatinib 1 μM (footnote), mean ± standard deviation): 4%
